The test system of data set [1] is Staphylococcus aureus. As to the kind of experiment: Antibacterial activity against Staphylococcus aureus ATCC 25923 incubated for 18 hrs by broth microdilution method. The class given is functional.
The test system of data set [2] is Bacillus subtilis. As to the kind of experiment: Antibacterial activity against Bacillus subtilis ATCC 23857 incubated for 18 hrs by broth microdilution method. The format is functional. In general terms: Dilution methods test growth across graded concentrations, often in twofold steps.
In data set [3] the test system is Staphylococcus epidermidis. The data set is described as follows: Antibacterial activity against Staphylococcus epidermidis ATCC 12228 incubated for 18 hrs by broth microdilution method. The format is functional.
Data set [4] deals with Klebsiella pneumoniae. The data set is described as follows: Antibacterial activity against Klebsiella pneumoniae ATCC 700603 incubated for 18 hrs by broth microdilution method. The class given is functional.
Data set [5] has as its system Escherichia coli. The data set is described as follows: Antibacterial activity against Escherichia coli ATCC 25922 incubated for 18 hrs by broth microdilution method. The format is functional.
For data set [6], the system named is Pseudomonas aeruginosa. The data set is described as follows: Antibacterial activity against Pseudomonas aeruginosa ATCC 27853 incubated for 18 hrs by broth microdilution method. The class given is functional.
For data set [7], the system named is Staphylococcus aureus. The data set is described as follows: Bactericidal activity against Staphylococcus aureus ATCC 25923 incubated for 18 hrs by broth microdilution method. The format is functional.
In data set [8] the test system is Bacillus subtilis. As to the kind of experiment: Bactericidal activity against Bacillus subtilis ATCC 23857 incubated for 18 hrs by broth microdilution method. The class given is functional.
Data set [9] has as its system Staphylococcus epidermidis. As to the kind of experiment: Bactericidal activity against Staphylococcus epidermidis ATCC 12228 incubated for 18 hrs by broth microdilution method. The class given is functional.
For data set [10], the system named is Klebsiella pneumoniae. The data set is described as follows: Bactericidal activity against Klebsiella pneumoniae ATCC 700603 incubated for 18 hrs by broth microdilution method. The format is functional.
Data set [11] concerns Escherichia coli. As to the kind of experiment: Bactericidal activity against Escherichia coli ATCC 25922 incubated for 18 hrs by broth microdilution method. The class given is functional.
Data set [12] concerns Pseudomonas aeruginosa. As to the kind of experiment: Bactericidal activity against Pseudomonas aeruginosa ATCC 27853 incubated for 18 hrs by broth microdilution method. The class given is functional.
Data set [13] relates to Erythrocyte. The data set is described as follows: Hemolytic activity in mouse erythrocytes assessed as concentration required to cause 10% hemolysis incubated for 1 hr. The format is toxicity, cell-based.
A short description of data set [14]: Self-assembly property of compound in PBS assessed as beta-sheet nanofibers formation incubated for 1 hr by Thioflavin T based fluorescence spectrophotometer analysis. The class given is physicochemical. The settings on record: buffer, dose 0.5-1.5 µM.
Data set [15] can be described thus: Retention time of the compound. The class given is physicochemical.
Data set [16] in a line: Self-assembly property of compound in water assessed as beta-sheet content. The format is physicochemical.
Data set [17] can be described thus: Self-assembly property of compound in PBS assessed as beta-sheet content. The class given is physicochemical. As to conditions: buffer.
Data set [18] is described as follows: Self-assembly property of compound in 50% TFE assessed as beta-sheet content. The class given is physicochemical.
Data set [19] relates to Staphylococcus aureus. The data set is described as follows: Antibacterial activity against Staphylococcus aureus at 2 times MIC preincubated for 1 hr with trypsin followed by enzyme inactivation and bacterial addition and measured after 18 hrs. The class given is functional. As to conditions: time 19 hrs.
Data set [20] deals with Staphylococcus aureus. As to the kind of experiment: Antibacterial activity against Staphylococcus aureus at 2 times MIC preincubated for 1 hr with chymotrypsin followed by enzyme inactivation and bacterial addition and measured after 18 hrs. The class given is functional. As to conditions: time 19 hrs.
For data set [21], the system named is Pseudomonas aeruginosa. The data set is described as follows: Drug resistance against Pseudomonas aeruginosa assessed as fold increase in MIC after 40 consecutive days of passages by sequential passaging method. The class given is functional. The settings on record: time 18 hrs.
The test system of data set [22] is Staphylococcus aureus. As to the kind of experiment: Antibacterial activity against Staphylococcus aureus infected in BALB/c mouse systemic infection model assessed as reduction in liver bacterial load at 10 mg/kg, ip measured after 8 hrs. The format is functional, organism-based.
The subject of data set [23] is Staphylococcus aureus. The data set is described as follows: Antibacterial activity against Staphylococcus aureus infected in BALB/c mouse systemic infection model assessed as reduction in lung bacterial load at 10 mg/kg, ip measured after 8 hrs. The format is functional, organism-based.
The subject of data set [24] is Staphylococcus aureus. As to the kind of experiment: Antibacterial activity against Staphylococcus aureus infected in BALB/c mouse systemic infection model assessed as reduction in kidney bacterial load at 10 mg/kg, ip measured after 8 hrs. The format is functional, organism-based.
In data set [25] the test system is Staphylococcus aureus. The data set is described as follows: Antibacterial activity against Staphylococcus aureus infected in BALB/c mouse systemic infection model assessed as reduction in spleen bacterial load at 10 mg/kg, ip measured after 8 hrs. The class given is functional, organism-based.
The subject of data set [26] is Staphylococcus aureus. The data set is described as follows: Antibacterial activity against methicillin resistant Staphylococcus aureus incubated for 18 hrs by broth microdilution method. The format is functional.
Data set [27] has as its system Staphylococcus aureus. The data set is described as follows: Antibacterial activity against methicillin resistant Staphylococcus aureus 113 incubated for 18 hrs by broth microdilution method. The format is functional.
For data set [28], the system named is Staphylococcus aureus. The data set is described as follows: Antibacterial activity against Staphylococcus aureus S794 incubated for 18 hrs by broth microdilution method. The class given is functional.
For data set [29], the system named is Staphylococcus aureus. The data set is described as follows: Antibacterial activity against Staphylococcus aureus S125 incubated for 18 hrs by broth microdilution method. The format is functional.
Data set [30] relates to Staphylococcus aureus. As to the kind of experiment: Antibacterial activity against methicillin resistant Staphylococcus aureus 75 incubated for 18 hrs by broth microdilution method. The format is functional.
The test system of data set [31] is Staphylococcus aureus. As to the kind of experiment: Antibacterial activity against Staphylococcus aureus incubated for 18 hrs by broth microdilution method. The class given is functional.
Data set [32] relates to Staphylococcus aureus. As to the kind of experiment: Antibacterial activity against kanamycin resistant Staphylococcus aureus incubated for 18 hrs by broth microdilution method. The class given is functional.
Data set [33] concerns Staphylococcus aureus. The data set is described as follows: Antibacterial activity against rifampicin resistant Staphylococcus aureus incubated for 18 hrs by broth microdilution method. The format is functional.
Data set [34] has as its system Escherichia coli. As to the kind of experiment: Antibacterial activity against Escherichia coli incubated for 18 hrs by broth microdilution method. The format is functional.
The subject of data set [35] is Escherichia coli. The data set is described as follows: Antibacterial activity against kanamycin resistant Escherichia coli incubated for 18 hrs by broth microdilution method. The class given is functional.
Data set [36] relates to Escherichia coli. The data set is described as follows: Antibacterial activity against rifampicin resistant Escherichia coli incubated for 18 hrs by broth microdilution method. The class given is functional.

Values after ≈ are worked out from the molar mass of the structure shown. Active and inactive are the calls of the source. The rule behind the calls is not given here.

With `NCCCC[C@@H](NC(=O)[C@H](N)Cc1c[nH]c2ccccc12)C(=O)N[C@H](Cc1c[nH]c2ccccc12)C(=O)N[C@H](CCCCN)C(=O)N[C@H](Cc1c[nH]c2ccccc12)C(=O)N1CCC[C@H]1C(=O)NCC(=O)N[C@H](Cc1c[nH]c2ccccc12)C(=O)N[C@H](CCCCN)C(=O)N[C@H](Cc1c[nH]c2ccccc12)C(=O)N[C@H](CCCCN)C(=O)N[C@H](Cc1c[nH]c2ccccc12)C(N)=O`, the MIC in data set [1] stood at 4 µM (≈ 7.2 µg/mL); in data set [2], 2 µM (≈ 3.6 µg/mL); in data set [3], 4 µM (≈ 7.2 µg/mL); in [4], 8 µM (≈ 14.4 µg/mL); in data set [5], 8 µM (≈ 14.4 µg/mL); in data set [6], 8 µM (≈ 14.4 µg/mL). The MBC in data set [7] turned out to be 8 µM (≈ 14.4 µg/mL); in data set [8], 8 µM (≈ 14.4 µg/mL); in data set [9], 4 µM (≈ 7.2 µg/mL); in [10], 8 µM (≈ 14.4 µg/mL); in data set [11], 8 µM (≈ 14.4 µg/mL); in data set [12], 32 µM (≈ 57.6 µg/mL). In [13], the MHC amounted to 46 µM. Besides, the Activity entry is “Not Active” in data set [14]; 63.8% in data set [16]; 63% in data set [17]; 30.1% in data set [18]; 100% in data set [19]; 100% in data set [20]. In data set [15], this molecule had a Retention_time of 14.321 min.

On to `O=C(O)c1cn(C2CC2)c2cc(N3CCNCC3)c(F)cc2c1=O` [CIPROFLOXACIN], for which the minimal inhibitory concentration (MIC) in data set [1] was 8 µM (≈ 2.65 µg/mL); in data set [2], 2 µM (≈ 0.663 µg/mL); in data set [3], 8 µM (≈ 2.65 µg/mL); in [4], 8 µM (≈ 2.65 µg/mL); in data set [5], less than 1 µM; in [6] it was 2 µM (≈ 0.663 µg/mL). Moreover, the MIC is 256 µM (≈ 84.8 µg/mL) in [26]; 16 µM (≈ 5.3 µg/mL) in [27]; 256 µM (≈ 84.8 µg/mL) in data set [28]; 8 µM (≈ 2.65 µg/mL) in data set [29]; 256 µM (≈ 84.8 µg/mL) in data set [30]; 8 µM (≈ 2.65 µg/mL) in [31]. The MIC in [32] was found to be 4 µM (≈ 1.33 µg/mL); in data set [33] it was 0.5 µM (≈ 0.166 µg/mL); in [34], 0.5 µM (≈ 0.166 µg/mL); in data set [35], 2 µM (≈ 0.663 µg/mL); in [36], 0.5 µM (≈ 0.166 µg/mL). Also, in [21], the “fold change (FC)” value came to 128. Moreover, the outcome in data set [22], in data set [23] and in data set [24] was Active. For the same molecule, the result in data set [25] was inactive.

Usually MIC stands for the lowest concentration found to suppress growth. Low readings indicate greater potency, high ones weaker potency. Usually MBC stands for the lowest tested concentration that kills the bacteria rather than only halting them.

Values taken from ChEMBL document CHEMBL5543109, “Novel β-Hairpin Antimicrobial Peptide Containing the β-Turn Sequence of -NG- and the Tryptophan Zippers Facilitate Self-Assembly into Nanofibers, Exhibiting Excellent Antimicrobial Performance” (J Med Chem, 2024).
